Source: patent publication US20110034472A1, “Novel Compounds for Treatment of Cancer and Disorders Associated With Angiogenesis Function” (UNIVERSITY OF SOUTHERN CALIFORNIA, priority 2004, published 2011)
Entries after “also recorded” stand apart in the source; their conditions may differ.

Key:
UO-31 renal cancer cells = test: Sensitivity of various cancer cells to SC144, UO-31; assay type: cell-based; details: Homo sapiens
Excerpt: (§1) The studies were expanded to other cell lines. […] Subnanomolar to low nanomolar potency was also observed in HCT-116 and HT29 colon cancer cell lines (Table 2).

MDA-MB-435 xenograft = test: microPET study of nude mouse with MDA-MB-435 xenograft treated with SC144; assay type: in vivo; details: 4 mg/kg daily i.p. 5 days; caliper measurements for 5 weeks
Description: Top row, baseline scans: (A) equilibrium-phase FDG, 30 min post injection; (B) FMAU, 10 min post injection; (C) FMAU, 60 min post injection. Bottom row, follow-up scans: (D) FDG, 30 min post injection; (E) FMAU, 10 min post injection; (F) FMAU, 60 min post injection. […] After five days of dosing, the drug treatment was discontinued and the follow-up scans were obtained on days 6 and 7.
[^18F]FDG is currently the most widely used radiotracer for imaging therapy response in oncology with PET. PET/[^18F]FDG measures viable cell density in tumors and also provides information on the expression of glucose transporters and hexokinase activity. […] Following cellular uptake, FMAU is phosphorylated by thymidine kinase and incorporated into DNA.
In later images at 30 and 60 min (FIG. 8C), FMAU had filled up the whole tumor, indicating the presence of dividing cells throughout.
FIGS. 8D-F show a repeat study of the same mouse after 5 days of treatment.

[1] = system: HCT 116 p53^+/+ colon cancer cells; test: MTT cytotoxicity assay, HCT 116 p53+/+; assay type: cell-based, human; details: Homo sapiens, 72 h
Excerpt: Human breast cancer cells MDA-MB-435 and colon cancer HT29, p53 mutant were purchased from the American Type Cell Culture (Manassas, Va.). The HCT116 P53^+/+ and HCT116 P53^−/− cells were kindly provided by Dr. Bert Vogelstein (Johns Hopkins Medical Institutions, Baltimore, Md.). Human prostate cancer cells, LNCaP, were kindly provided by Richard Cote (University of Southern California Keck School of Medicine). Cells were maintained as monolayer cultures in RPMI 1640 media supplemented with 10% fetal bovine serum (Gemini-Bioproducts, Woodland, Calif.) and 2 mmol/L L-glutamine at 37° C. in a humidified atmosphere of 5% CO2. To remove the adherent cells from the flask for passaging and counting, cells were washed with PBS without calcium or magnesium, incubated with a small volume of 0.25% trypsin-EDTA solution (Sigma-Aldrich, St. Louis, Mo.) for 5-10 min, and washed with culture medium and centrifuged. All experiments were performed using cells at exponential growth stage. Cells were routinely checked for mycoplasma contamination using a PCR-based assay (Stratagene, Cambridge, UK).
Cytotoxicity was assessed by a 3-(4,5-dimethylthiazol-2-yl)-2,5-diphenyltetrazolium bromide (MTT) assay as previously described.^9 Briefly, cells were seeded in 96-well microtiter plates and allowed to attach. Cells were subsequently treated with continuous exposure to the corresponding drug for 72 h. An MTT solution (at a final concentration of 0.5 mg/mL) was added to each well, and cells were incubated for 4 h at 37° C. After removal of the medium, DMSO was added and the absorbance was read at 570 nm. All assays were done in triplicate. The IC50 was then determined for each drug from a plot of log (drug concentration) versus percentage of cells killed.

MDA-MB-435 xenografts = test: Nude mice xenograft model of human breast MDA-MB-435 cells; assay type: in vivo
Description: FIG. 3. (A) is a schematic outline of tumor growth and dosing in xenograft models. […] Tumor growth was monitored for five weeks. Values represent the median tumor weight for each group.
After five-days of dosing, the drug treatment was discontinued and the animals were monitored bi-weekly for five weeks.
For statistical analysis, the % T/C value was calculated on the last day of dosing and is graphed for all of the treatment groups (FIG. 3C).
To evaluate the extent of tumor necrosis after drug treatment tumor samples were collected from control and treated mice on day 70.

SF-268 CNS cancer cells = test: Sensitivity of various cancer cells to SC144, SF-268; assay type: cell-based; details: Homo sapiens
Excerpt: as §1

MDA-MB-435 cells = test: Flow cytometric cell cycle analysis, SC144; assay type: cell-based, human; details: 24 h of treatment, SC144 3 uM
Excerpt: Similar effects were obtained on the asynchronous prostate cancer cell line DU145.

HL60 leukemia cells = test: Sensitivity of various cancer cells to SC144, HL60; assay type: cell-based; details: Homo sapiens, HL-60
Excerpt: as §1

[2] = system: MCF-7/ADR breast cancer cells; test: MTT cytotoxicity assay, MCF-7/ADR; assay type: cell-based; details: Homo sapiens, NCI/ADR-RES, read-out: CC50 values (mean ± SD)
Description: The sensitivity of a panel of seven human cancer cell lines to SC144 was assessed by MTT-assay. […] The sensitivity towards SC144 was time- and dose-dependent.

DU145 cells = test: Cell cycle analysis (propidium iodide), SC21, DU145; assay type: cell-based, human; details: 72 hours of exposure, IC50
Description: (§2) FIG. 17 depicts flow cytometric analysis of the cell cycle profiles of DU145, PC3, MDA-MB-435, and HEY cells treated with SC21. […] SC21 induced a G0/G1 phase arrest in DU145 and MDA-MB-435 cells and S phase arrest in PC3 and HEY cells.
Cell cycle perturbations induced by SC21 and camptothecin (CPT) were analyzed by propidium iodide DNA staining. Briefly, exponentially growing PC3 and DU145 cells were treated with different doses of the drug for 24, 48, and 72 hours. At the end of each treatment time, cells were collected and washed with PBS after a gentle centrifugation at 200×g for 5 minutes. Cells were thoroughly resuspended in 0.5 mL of PBS and fixed in 70% ethanol for at least 2 hours at 4° C. Ethanol-suspended cells were then centrifuged at 200×g for 5 minutes and washed twice in PBS to remove residual ethanol. For cell cycle analysis, the pellets were suspended in 1 mL of PBS containing 0.02 mg/mL of propidiumiodide, 0.5 mg/mL of DNase-free RNase A and 0.1% of Triton X-100 and incubated at 37° C. for 30 minutes. Cell cycle profiles were obtained using a FACScan flowcytometer (Becton Dickinson, San Jose, Calif.) and data were analyzed by ModFit LT software (Verity Software House, Inc., Topsham, Me.). […]

PC3 cells = test: Cell cycle analysis (propidium iodide), SC21, PC3; assay type: cell-based, human; details: 72 hours
Description: as §2
Cell cycle perturbations induced by SC21 and camptothecin (CPT) were analyzed by propidium iodide DNA staining. Briefly, exponentially growing PC3 and DU145 cells were treated with different doses of the drug for 24, 48, and 72 hours. At the end of each treatment time, cells were collected and washed with PBS after a gentle centrifugation at 200×g for 5 minutes. Cells were thoroughly resuspended in 0.5 mL of PBS and fixed in 70% ethanol for at least 2 hours at 4° C. Ethanol-suspended cells were then centrifuged at 200×g for 5 minutes and washed twice in PBS to remove residual ethanol. For cell cycle analysis, the pellets were suspended in 1 mL of PBS containing 0.02 mg/mL of propidiumiodide, 0.5 mg/mL of DNase-free RNase A and 0.1% of Triton X-100 and incubated at 37° C. for 30 minutes. Cell cycle profiles were obtained using a FACScan flowcytometer (Becton Dickinson, San Jose, Calif.) and data were analyzed by ModFit LT software (Verity Software House, Inc., Topsham, Me.).
It was noteworthy that SC21 induced S phase arrest in PC3 and HEY cell lines (FIG. 17).

SMILES	CC50 (UO-31 renal cancer cells)	long-term reduction of tumor volume compared with sham-treated control mice (MDA-MB-435 xenograft)	IC50 [1]	organ toxicity (H&E staining of kidney, liver, heart tissues) (MDA-MB-435 xenografts; 4 mg/kg)	reduced tumor growth (MDA-MB-435 xenografts; 4 mg/kg daily i.p. for five days)	necrosis of tumor tissues (MDA-MB-435 xenografts; 4 mg/kg, day 70, H&E staining)	tolerability, drug-related deaths (MDA-MB-435 xenografts; 0.3, 0.8, 4 mg/kg daily i.p. five days)	body weight compared to vehicle control (MDA-MB-435 xenografts; mouse, in vivo)	CC50 (SF-268 CNS cancer cells)	cells retained in S-phase (MDA-MB-435 cells)	CC50 (HL60 leukemia cells)	CC50 [2]	cells retained in G0/G1 phase (DU145 cells)	accumulation in S phase (PC3 cells)
O=C(NNc1nc2cc(F)ccc2n2cccc12)c1cnccn1 [SC144, Pyrazine-2-carboxylic acid N′-(7-fluoro-pyrrolo[1,2-a]quinoxalin-4-yl)-hydrazide]	300 nM	> 50%	600 ± 70 nM	no damage in these organs; also recorded: does not exhibit organ toxicity	60%	greater than 80%	well tolerated and did not result in drug-related deaths	no changes in body weight	300 nM	80%	270 nM	2500 ± 1000 nM	–	–
O=C(NNC(=O)c1ccccc1O)C1=CC2C=CC=CC2C=C1O (centres unmarked) [SC21]	–	–	–	–	–	–	–	–	–	–	–	–	65%	52%
